Reference: ChEMBL document CHEMBL5143594 (Bioorg Med Chem Lett, 2022)

How the values were obtained:
Parameters in all cases: species or system Severe acute respiratory syndrome coronavirus 2
[1] = Inhibition of SARS-CoV-2 main protease L89F mutant expressed in Escherichia coli BL21 (DE3) using DABCYL-KTSAVLQ1SGFRKM-E(EDANS)-NH2 as substrate preincubated for 10 mins followed by substrate addition and measured after 5 mins by FRET analysis
[2] = Inhibition of SARS-CoV-2 main protease K90R mutant expressed in Escherichia coli BL21 (DE3) using DABCYL-KTSAVLQ1SGFRKM-E(EDANS)-NH2 as substrate preincubated for 10 mins followed by substrate addition and measured after 5 mins by FRET analysis
[3] = Inhibition of SARS-CoV-2 main protease L205V mutant expressed in Escherichia coli BL21 (DE3) using DABCYL-KTSAVLQ1SGFRKM-E(EDANS)-NH2 as substrate preincubated for 10 mins followed by substrate addition and measured after 5 mins by FRET analysis
[4] = Inhibition of SARS-CoV-2 main protease G15S mutant expressed in Escherichia coli BL21 (DE3) using DABCYL-KTSAVLQ1SGFRKM-E(EDANS)-NH2 as substrate preincubated for 10 mins followed by substrate addition and measured after 5 mins by FRET analysis
[5] = Inhibition of SARS-CoV-2 main protease T21I mutant expressed in Escherichia coli BL21 (DE3) using DABCYL-KTSAVLQ1SGFRKM-E(EDANS)-NH2 as substrate preincubated for 10 mins followed by substrate addition and measured after 5 mins by FRET analysis
[6] = Inhibition of SARS-CoV-2 main protease P132H mutant expressed in Escherichia coli BL21 (DE3) using DABCYL-KTSAVLQ1SGFRKM-E(EDANS)-NH2 as substrate preincubated for 10 mins followed by substrate addition and measured after 5 mins by FRET analysis

Compound: CC(C)(C)[C@H](NC(=O)C(F)(F)F)C(=O)N1C[C@H]2[C@@H]([C@H]1C(=O)N[C@H](C#N)C[C@@H]1CCNC1=O)C2(C)C
- IC50 [1]: 10.5 nM
- IC50 [2]: 12.7 nM
- IC50 [3]: 10.7 nM
- IC50 [4]: 10.3 nM
- IC50 [5]: 10.1 nM
- IC50 [6]: 12.2 nM
